# Assay results published in patent US11780830B2, “Triazolone derivatives or salts thereof and pharmaceutical compositions comprising the same” (YUHAN CORPORATION, priority 2018, dated 2023).
# Structures can show the parent of a compound that is named as a salt.
# Key:
# Format in all cases: biochemical
# [1] = target: T1, recombinant human DAO (diamine oxidase) (Homo sapiens, UniProt P19801); assay: Activity on recombinant human DAO, method similar to the VAP-1 assay; details: substrate 1 mM putrescine; read-out: Inhibitory Activity (IC50, nM) DAO
# T1 construct: purchased R&D systems
# T1 sequence (P19801 20-751): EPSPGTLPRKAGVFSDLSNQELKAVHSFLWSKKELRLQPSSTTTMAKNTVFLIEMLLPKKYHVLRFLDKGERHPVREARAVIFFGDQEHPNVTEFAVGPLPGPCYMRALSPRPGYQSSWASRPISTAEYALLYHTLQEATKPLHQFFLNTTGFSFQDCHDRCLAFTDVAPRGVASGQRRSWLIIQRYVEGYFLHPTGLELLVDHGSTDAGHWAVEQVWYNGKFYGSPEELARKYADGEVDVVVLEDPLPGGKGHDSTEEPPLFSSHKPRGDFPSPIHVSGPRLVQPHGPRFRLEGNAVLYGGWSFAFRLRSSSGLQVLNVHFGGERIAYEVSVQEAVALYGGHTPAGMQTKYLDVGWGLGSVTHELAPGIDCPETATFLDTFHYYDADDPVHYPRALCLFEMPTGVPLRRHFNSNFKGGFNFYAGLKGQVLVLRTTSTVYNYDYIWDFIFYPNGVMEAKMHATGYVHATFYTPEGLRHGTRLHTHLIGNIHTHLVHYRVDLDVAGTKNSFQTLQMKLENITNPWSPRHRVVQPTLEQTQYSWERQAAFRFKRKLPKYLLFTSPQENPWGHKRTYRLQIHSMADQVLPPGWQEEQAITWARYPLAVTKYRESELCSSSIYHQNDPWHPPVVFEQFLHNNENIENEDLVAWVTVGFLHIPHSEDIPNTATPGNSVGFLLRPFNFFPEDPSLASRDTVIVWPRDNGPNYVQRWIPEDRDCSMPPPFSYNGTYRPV
# Summary of the method: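 Inhibition of recombinant human diamine oxidase (DAO, R&D systems) was assessed by the same approach as the VAP-1 assay, using 1 mM putrescine as substrate. Hydrogen peroxide formed was detected through an HRP-coupled Amplex Red reaction yielding fluorescent resorufin, read at 544 nm excitation and 590 nm emission. IC50 values came from four-parameter logistic fitting in GraphPad Prism.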
# recombinant human VAP-1 = target: T2, recombinant human VAP-1 (Homo sapiens, UniProt Q16853); assay: Activity on recombinant human VAP-1, HRP-coupled Amplex Red hydrogen peroxide assay; details: substrate 1 mM benzylamine; compound incubated with enzyme at 37° C. for 30 minutes; pH 7.4; read-out: Inhibitory Activity (IC50, nM) human VAP-1
# T2 construct: purchased R&D systems
# T2 sequence (Q16853 1-763): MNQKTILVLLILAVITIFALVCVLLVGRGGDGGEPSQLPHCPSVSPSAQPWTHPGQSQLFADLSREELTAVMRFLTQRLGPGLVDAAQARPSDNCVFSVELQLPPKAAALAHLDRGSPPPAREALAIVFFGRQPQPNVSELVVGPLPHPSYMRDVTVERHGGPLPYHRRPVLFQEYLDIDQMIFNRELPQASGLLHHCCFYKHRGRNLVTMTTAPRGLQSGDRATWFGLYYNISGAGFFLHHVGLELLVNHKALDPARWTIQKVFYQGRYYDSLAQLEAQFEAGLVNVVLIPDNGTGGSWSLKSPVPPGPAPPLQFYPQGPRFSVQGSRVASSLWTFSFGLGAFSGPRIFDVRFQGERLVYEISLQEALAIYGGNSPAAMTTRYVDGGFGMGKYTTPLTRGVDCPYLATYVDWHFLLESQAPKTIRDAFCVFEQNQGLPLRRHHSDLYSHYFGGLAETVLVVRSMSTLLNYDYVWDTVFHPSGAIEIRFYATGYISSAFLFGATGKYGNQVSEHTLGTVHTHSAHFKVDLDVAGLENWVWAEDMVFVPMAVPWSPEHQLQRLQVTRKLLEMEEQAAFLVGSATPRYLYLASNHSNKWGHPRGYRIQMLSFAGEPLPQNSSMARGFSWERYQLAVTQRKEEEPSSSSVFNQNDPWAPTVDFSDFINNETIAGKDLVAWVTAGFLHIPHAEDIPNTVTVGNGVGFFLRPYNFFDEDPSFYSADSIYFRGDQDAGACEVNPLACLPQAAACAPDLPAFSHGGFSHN
# Summary of the method: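 Enzyme in 50 mM sodium phosphate pH 7.4 preincubated with compound 30 min at 37 °C, then 1 mM benzylamine, 200 µM Amplex Red and 1 U/mL HRP added. H2O2-derived resorufin fluorescence (ex 544/em 590 nm) followed over 1–2 h; signal-rate decrease versus DMSO control, 8-point curve, four-parameter logistic IC50.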
# [2] = target: T3, recombinant human MAO-B (monoamine oxidase-B) (Homo sapiens, UniProt P27338); assay: Activity on recombinant human MAO-B, method similar to the VAP-1 assay; details: substrate 1 mM benzylamine; read-out: Inhibitory Activity (IC50, nM) MAO-B
# T3 construct: purchased Sigma-Aldrich
# T3 sequence (P27338 1-520): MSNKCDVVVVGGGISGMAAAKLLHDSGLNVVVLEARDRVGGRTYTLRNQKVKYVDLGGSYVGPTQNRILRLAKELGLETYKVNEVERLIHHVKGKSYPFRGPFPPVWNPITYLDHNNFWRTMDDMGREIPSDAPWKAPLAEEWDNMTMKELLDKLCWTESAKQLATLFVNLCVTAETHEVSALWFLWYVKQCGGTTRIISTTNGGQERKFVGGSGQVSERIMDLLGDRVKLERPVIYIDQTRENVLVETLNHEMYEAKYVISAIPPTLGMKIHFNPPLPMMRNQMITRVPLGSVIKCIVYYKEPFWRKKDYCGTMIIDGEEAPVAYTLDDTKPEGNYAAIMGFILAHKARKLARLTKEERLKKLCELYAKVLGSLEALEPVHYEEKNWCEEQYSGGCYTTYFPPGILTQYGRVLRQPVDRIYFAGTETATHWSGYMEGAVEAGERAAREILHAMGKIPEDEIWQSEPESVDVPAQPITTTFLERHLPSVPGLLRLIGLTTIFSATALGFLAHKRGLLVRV
# Summary of the method: (§1)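 Enzyme preincubated with compound 30 min at 37 °C in 50 mM sodium phosphate pH 7.4, final DMSO below 1%. Substrate was 0.5 mM tyramine for MAO-A and 1 mM benzylamine for MAO-B, with 200 uM Amplex Red and 1 U/mL HRP. H2O2-coupled resorufin fluorescence (ex 544/em 590) followed over 1–2 h; 8-point 4-parameter IC50.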
# [3] = target: T4, recombinant human MAO-A (monoamine oxidase-A) (Homo sapiens, UniProt P21397); assay: Activity on recombinant human MAO-A, method similar to the VAP-1 assay; details: substrate 0.5 mM tyramine; read-out: Inhibitory Activity (IC50, nM) MAO-A
# T4 construct: purchased Sigma-Aldrich
# T4 sequence (P21397 1-527): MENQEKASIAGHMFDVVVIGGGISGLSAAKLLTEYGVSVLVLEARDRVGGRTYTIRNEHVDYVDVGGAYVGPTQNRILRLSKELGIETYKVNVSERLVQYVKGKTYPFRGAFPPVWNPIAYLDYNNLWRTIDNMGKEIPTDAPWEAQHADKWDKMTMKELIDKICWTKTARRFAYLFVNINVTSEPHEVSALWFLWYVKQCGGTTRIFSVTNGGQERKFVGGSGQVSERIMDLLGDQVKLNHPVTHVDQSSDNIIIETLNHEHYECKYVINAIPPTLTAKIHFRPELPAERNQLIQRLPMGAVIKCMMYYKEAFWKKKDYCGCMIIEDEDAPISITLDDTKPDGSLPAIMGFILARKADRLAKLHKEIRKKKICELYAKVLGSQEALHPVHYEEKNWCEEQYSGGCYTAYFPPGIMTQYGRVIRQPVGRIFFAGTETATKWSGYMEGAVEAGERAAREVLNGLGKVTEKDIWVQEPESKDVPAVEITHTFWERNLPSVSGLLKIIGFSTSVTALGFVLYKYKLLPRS
# Summary of the method: as §1
SMILES,IC50 [1] [nM],IC50 (recombinant human VAP-1) [nM],IC50 [2] [nM],IC50 [3] [nM]
"NC/C(=C\F)Cn1ncn(Cc2ccc(-c3cccc(S(=O)(=O)N4CCCC4)c3)s2)c1=O [Example 28, 2-[(2E)-2-(aminomethyl)-3-fluoroprop-2-en-1-yl]-4-(5-[3-(pyrrolidin-1-ylsulfonyl)phenyl]thiophen-2-ylmethyl)-2,4-dihydro-3H-1,2,4-triazol-3-one hydrochloride]",120,0.5,200,> 100000
"NC/C(=C\F)Cn1ncn(Cc2ccc(-c3ccc(S(=O)(=O)N4CCOCC4)cc3)s2)c1=O [Example 29, 2-[(2E)-2-(aminomethyl)-3-fluoroprop-2-en-1-yl]-4-(5-[4-(morpholin-4-ylsulfonyl)phenyl]thiophen-2-ylmethyl)-2,4-dihydro-3H-1,2,4-triazol-3-one hydrochloride]",150,1.4,> 10000,> 100000
"NC/C(=C\F)Cn1ncn(Cc2ccc(-c3ccc(-c4nnc[nH]4)cc3)s2)c1=O [Example 31, 2-[(2E)-2-(aminomethyl)-3-fluoroprop-2-en-1-yl]-4-(5-[4-(4H-1,2,4-triazol-3-yl)phenyl]thiophen-2-ylmethyl)-2,4-dihydro-3H-1,2,4-triazol-3-one]",120,0.67,73,> 100000
"NC/C(=C\F)Cn1ncn(Cc2ccc(-c3cccc(-c4nnc[nH]4)c3)s2)c1=O [Example 33, 2-[(2E)-2-(aminomethyl)-3-fluoroprop-2-en-1-yl]-4-(5-[3-(4H-1,2,4-triazol-3-yl)phenyl]thiophen-2-ylmethyl)-2,4-dihydro-3H-1,2,4-triazol-3-one]",790,0.8,600,> 100000
"NC/C(=C\F)Cn1ncn(Cc2ccc(-c3cccc(-c4ncon4)c3)s2)c1=O [Example 34, 2-[(2E)-2-(aminomethyl)-3-fluoroprop-2-en-1-yl]-4-(5-[3-(1,2,4-oxadiazol-3-yl)phenyl]thiophen-2-ylmethyl)-2,4-dihydro-3H-1,2,4-triazol-3-one]",660,2,116,> 100000
"NC/C(=C\F)Cn1ncn(Cc2ccc(-c3ccc(-c4noc(C5CC5)n4)cc3)s2)c1=O [Example 35, 2-[(2E)-2-(aminomethyl)-3-fluoroprop-2-en-1-yl]-4-(5-[4-(5-cyclopropyl-1,2,4-oxadiazol-3-yl)phenyl]thiophen-2-ylmethyl)-2,4-dihydro-3H-1,2,4-triazol-3-one hydrochloride]",67,0.89,247,39600
"NC/C(=C\F)Cn1ncn(Cc2ccc(-c3cccc(-c4noc(C5CC5)n4)c3)s2)c1=O [Example 36, 2-[(2E)-2-(aminomethyl)-3-fluoroprop-2-en-1-yl]-4-(5-[3-(5-cyclopropyl-1,2,4-oxadiazol-3-yl)phenyl]thiophen-2-ylmethyl)-2,4-dihydro-3H-1,2,4-triazol-3-one hydrochloride]",344,0.7,101,> 100000
"CC(C)c1nc(-c2ccc(-c3ccc(Cn4cnn(C/C(=C/F)CN)c4=O)s3)cc2)no1 [Example 37, 2-[(2E)-2-(aminomethyl)-3-fluoroprop-2-en-1-yl]-4-[(5-4-[5-(propan-2-yl)-1,2,4-oxadiazol-3-yl]phenylthiophen-2-yl)methyl]-2,4-dihydro-3H-1,2,4-triazol-3-one hydrochloride]",120,0.76,590,5590
"CC(C)c1nc(-c2cccc(-c3ccc(Cn4cnn(C/C(=C/F)CN)c4=O)s3)c2)no1 [Example 38, 2-[(2E)-2-(aminomethyl)-3-fluoroprop-2-en-1-yl]-4-[(5-3-[5-(propan-2-yl)-1,2,4-oxadiazol-3-yl]phenylthiophen-2-yl)methyl]-2,4-dihydro-3H-1,2,4-triazol-3-one hydrochloride]",2400,2.8,1030,7900
"NC/C(=C\F)Cn1ncn(Cc2ccc(-c3ccc(-c4ccon4)cc3)s2)c1=O [Example 40, 2-[(2E)-2-(aminomethyl)-3-fluoroprop-2-en-1-yl]-4-(5-[4-(1,2-oxazol-3-yl)phenyl]thiophen-2-ylmethyl)-2,4-dihydro-3H-1,2,4-triazol-3-one hydrochloride]",370,0.6,110,> 100000
"CN(C)c1ccc(-c2ccc(Cn3cnn(C/C(=C/F)CN)c3=O)s2)cn1 [Example 42, 2-[(2E)-2-(aminomethyl)-3-fluoroprop-2-en-1-yl]-4-(5-[6-(dimethylamino)pyridin-3-yl]thiophen-2-ylmethyl)-2,4-dihydro-3H-1,2,4-triazol-3-one hydrochloride]",570,0.7,5100,> 100000
